{"source": "patent US11672771B2", "about": "“Beta-alethine, immune modulators, and uses thereof” (AxImmune, Inc., priority 2016, dated 2023)", "key": {"[1]": {"settings": "in vivo; cited from earlier work"}, "[2]": {"test_system": "Cloudman melanoma cancer cell line", "experiment": "Tumor size after s.c. and intratumoral β-alethine in mice with established Cloudman melanoma", "assay_type": "in vivo, DBA mice", "procedure": "At 38 days after tumor cell injection, the tumors were 17, 25 and 32 mm^2. At 38, 46, and 52 days after tumor cell injection, mice were treated with s.c. injections between the shoulder blades (distal to the tumor) of 30 mg/kg β-alethine in sterile saline (each s.c. injection of β-alethine is indicated by triangles in FIG. 2). Tumor size was monitored after each injection. […] However, the other two mice were then treated with β-alethine at 30 mg/kg intratumorally (i.t.) on day 55 post-tumor cell injection.\nFurther, when β-alethine was injected directly into the tumors, animals that previously had not responded or not fully responded via s.c. injection now responded, included apparent complete response."}, "lymphoma": {"test_system": "lymphoma", "settings": "single agent; cited from earlier work"}, "Cloudman S-91 melanomas": {"test_system": "Cloudman S-91 melanomas", "settings": "melanomas already established; cited from earlier work"}, "[3]": {"test_system": "CD4+ or CD8+ T cells that expressed PD-1, Lag3, or Tim3", "experiment": "Checkpoint inhibitor expression and T cell percentages in blood 48 hours after one s.c. injection of β-alethine in Cloudman melanoma mice", "assay_type": "in vivo, DBA mice", "procedure": "It was hypothesized that β-alethine could affect checkpoint inhibitors expression in vivo in tumor bearing animals. […] As a baseline, blood from each animal was taken (“Cloudman preBLT”). Mice then were treated with one subcutaneous (s.c.) injection of 30 mg/kg β-alethine. 48 hours after receiving the s.c. injection of β-alethine, blood was taken (“Cloudman postBLT”). […]"}, "[4]": {"test_system": "monocytes expressing PD-L1", "experiment": "Ex vivo treatment of dog white blood cells, PD-L1 on monocytes by flow cytometry", "assay_type": "cell-based", "settings": "0-1000 uM, 24 hours incubation, autologous serum; in some of the dogs (three healthy, three with cancer)", "procedure": "In this study, white blood cells and serum were isolated from three healthy dogs and three dogs with cancer. Two dogs had osteosarcoma (Cancer_1 and Cancer_2 in FIG. 5) and one dog had melanoma (Cancer_3 in FIG. 5). Isolated white blood cells were grown in culture with autologous dog serum and varying doses of β-alethine (0-1000 uM). After 24 hours of incubation with β-alethine, monocytes were isolated and were examined for PD-L1 expression using flow cytometry analysis and a canine-specific anti-PD-L1 antibody. […] Further is documents cross species activity of BA. Current human clinical trials with immune checkpoint inhibitors also include antibodies antagonistic to PD-L1. Thus, β-alethine could also be used synergistically with anti-PD-L1 therapies."}, "MT-1 tumor xenograft": {"test_system": "MT-1 tumor xenograft", "settings": "cited from earlier work"}, "[5]": {"test_system": "Cloudman melanoma cancer cell line", "experiment": "Tumor growth with β-alethine, anti-PD-1 or both (concurrent or sequential) in Cloudman melanoma mice", "assay_type": "in vivo", "settings": "for tumor growth (tumor size): vs PBS, not statistically significant", "procedure": "After confirming tumor growth, mice were randomized into the treatment groups listed in Table 4. n=10 mice in the Low Dose, High Dose, q14, untreated, and PBS groups; n=5 mice in PD-1 and BLT/PD-1 groups.\nTumor growth was measured 3 times a week. […] In the PBS treated group, there likely was an artificially low reading in the PBS group on day 23. A repeat reading of tumor size at day 25 confirmed the original trajectory. […] In addition, by day 25, the cancers in all these groups were growing at rates similar to the PBS or untreated control.\nIn order to further examine this dramatic result, long-term immunity after relapse was determined. In the mice treated with three doses of PD-1 alone at days 15, 18, and 21, tumor size increased through day 29 until the average size was almost 50 mm^2. […] At day 29, mice in the single agent anti-PD-1 treated group received a dose of 30 mg/kg β-alethine subcutaneously, and then weekly thereafter. […] Thus, in total, 9 of 10 mice in either the combination treatment group or the anti-PD-1 rescued with β-alethine group had complete regression of their tumors."}, "[6]": {"test_system": "human peripheral blood mononuclear cells", "settings": "polarized Th1 response; cited from earlier work"}, "NS-1 mouse myeloma": {"test_system": "NS-1 mouse myeloma", "settings": "repeated administration as monotherapy soon after inoculation with relatively low doses of tumor; cited from earlier work"}, "multiple myeloma": {"test_system": "multiple myeloma", "settings": "multiple myeloma (Benson et al., 2012); cited from earlier work"}, "[7]": {"settings": "Post-, 48 hours after β-alethine s.c."}, "[8]": {"settings": "Post-β-alethine, blood 48 hours after one s.c. injection of 30 mg/kg"}}, "note": "Entries after “also recorded” stand apart in the source; their conditions may differ."}
{"compound": "NCCC(=O)NCCSSCCNC(=O)CCN", "note": "[β-alethine, 3-amino-N-(2-{[2-(3-aminopropanamido)ethyl]disulfanyl}ethyl)propenamide]", "values": [{"measurement": "toxicity in animals", "setting": "[1]", "result": "non-toxic"}, {"measurement": "tumor response of second mouse after intratumoral injection", "setting": "[2]; 30 mg/kg i.t. on day 55 after s.c. injections, seen on day 66", "result": "complete regression of the tumor"}, {"measurement": "tumor size of remaining mouse after series of i.t. injections", "setting": "[2]; 30 mg/kg i.t. on days 55, 68, 82", "result": "decrease in tumor size"}, {"measurement": "start of tumor regression in the remaining mouse", "setting": "[2]; 30 mg/kg i.t. on days 55, 68, 82 after s.c. injections", "result": "~70 day post-tumor cell injection"}, {"measurement": "complete tumor regression after s.c. injections", "setting": "[2]; 30 mg/kg s.c. at days 38, 46, 52, three mice, at day 56 post-tumor cell injection", "result": "one of the mice demonstrated a complete tumor regression"}, {"measurement": "local or systemic side effects", "setting": "[2]; i.t. injections of 30 mg/kg in the mouse", "result": "not associated with any perceivable local or systemic side effects"}, {"measurement": "drug related adverse events", "setting": "lymphoma", "result": "no local or systemic drug related adverse events; also recorded: no drug-related adverse events"}, {"measurement": "tumor size in lymphoma patients not anergic to recall antigens pre-trial", "setting": "lymphoma", "result": "reduction or stabilization in tumor sized in all patients with lymphoma who were not anergic to recall antigens pre-trial; also recorded: shrinkage or stabilization in all patients with lymphoma who were not anergic to recall antigens pre-trial"}, {"measurement": "percent survival", "setting": "Cloudman S-91 melanomas", "result": "increase the percent survival"}, {"measurement": "number of molecule per cell (mean fluorescent intensity MFI) on cells that continued to have checkpoint molecule expression", "setting": "[3]; 48 hours after one s.c. injection of 30 mg/kg vs before", "result": "specific reduction"}, {"measurement": "percentages of CD4 and CD8 T cells expressing PD-1, Lag3, or Tim3", "setting": "[3]; FIG. 1A, 48 hours after one s.c. injection of 30 mg/kg vs before", "result": "reduced percentages"}, {"measurement": "% CD8+ of white blood cells", "setting": "[3]; [7]", "result": 0.9, "unit": "%"}, {"measurement": "CD4-Lag3, percentage of cells expressing checkpoint inhibitor", "setting": "[3]; [7]", "result": 2.1, "unit": "%"}, {"measurement": "CD4-PD1, percentage of cells expressing checkpoint inhibitor", "setting": "[3]; [7]", "result": 4.4, "unit": "%"}, {"measurement": "CD4-Tim3, percentage of cells expressing checkpoint inhibitor", "setting": "[3]; [7]", "result": 1.3, "unit": "%"}, {"measurement": "CD8-Lag3, percentage of cells expressing checkpoint inhibitor", "setting": "[3]; [7]", "result": 0.1, "unit": "%"}, {"measurement": "CD8-PD1, percentage of cells expressing checkpoint inhibitor", "setting": "[3]; [7]", "result": 1.2, "unit": "%"}, {"measurement": "CD8-Tim3, percentage of cells expressing checkpoint inhibitor", "setting": "[3]; [7]", "result": 0.2, "unit": "%"}, {"measurement": "CD4-Lag3+ checkpoint inhibitor expression", "setting": "[3]; [8]", "result": 55, "unit": "MFI"}, {"measurement": "CD4-PD1+ checkpoint inhibitor expression", "setting": "[3]; [8]", "result": 153, "unit": "MFI"}, {"measurement": "CD4-Tim3+ checkpoint inhibitor expression", "setting": "[3]; [8]", "result": 93, "unit": "MFI"}, {"measurement": "CD8-Lag3+ checkpoint inhibitor expression", "setting": "[3]; [8]", "result": 627, "unit": "MFI"}, {"measurement": "CD8-PD1+ checkpoint inhibitor expression", "setting": "[3]; [8]", "result": 259, "unit": "MFI"}, {"measurement": "CD8-Tim3 checkpoint inhibitor expression", "setting": "[3]; [8]", "result": 1283, "unit": "MFI"}, {"measurement": "percentages of monocytes expressing PD-L1", "setting": "[4]", "result": "reduced the percentages of monocytes expressing PD-L1"}, {"measurement": "effectiveness of chemotherapy for late stage breast cancer", "setting": "MT-1 tumor xenograft; adjunct to chemotherapy", "result": "increase effectiveness of chemotherapy"}, {"measurement": "toxicity due to the chemotherapy", "setting": "MT-1 tumor xenograft; adjunct to chemotherapy", "result": "did not increase toxicity due to the chemotherapy"}, {"measurement": "localized tumor growth", "setting": "MT-1 tumor xenograft; breast cancer", "result": "effective in treating localized tumor growth"}, {"measurement": "tumor growth (tumor size)", "setting": "[5]; High dose: 30 mg/kg s.c. once a week from day 15", "result": "delayed tumor growth temporarily"}, {"measurement": "tumor growth (tumor size)", "setting": "[5]; Low dose: 30 ng/kg s.c. once a week from day 15", "result": "delayed tumor growth temporarily"}, {"measurement": "toxicity", "setting": "[5]; low dose or high dose β-alethine alone", "result": "no obvious toxicity was observed"}, {"measurement": "IFN-γ production", "setting": "[6]", "result": "increased IFN-γ production"}, {"measurement": "IL-10 expression", "setting": "[6]", "result": "depressed IL-10 expression"}, {"measurement": "T cell activation and proliferation", "setting": "[6]", "result": "increased T cell activation and proliferation"}, {"measurement": "survival rates", "setting": "NS-1 mouse myeloma", "result": "significantly increased survival rates"}]}
{"compound": "lirlumab: anti-KIR antibody (Innate Pharma)", "values": [{"measurement": "anti-tumor activity", "setting": "multiple myeloma", "result": "demonstrated anti-tumor activity"}]}
{"compound": "IPH2101: anti-KIR antibody (Innate Pharma)", "values": [{"measurement": "anti-tumor activity", "setting": "multiple myeloma", "result": "demonstrated anti-tumor activity"}]}
